In patent publication US8586588B2, “Aryl pyridazinone derivatives and their use as H3 receptor ligands” (Cephalon, Inc., priority 2006, dated 2013):
Read-outs that look alike come from different tables or passages of the source.

How the values were obtained:
human H3 receptor = target: T1, human H3 receptor (Homo sapiens, UniProt Q9Y5N1); assay: Human H3 radioligand binding ([3H]-N-alpha-methylhistamine, CHO cell membranes, SPA); conditions: binding constant as letter class
T1 construct: expressed in transfected cells
Procedure: (§1) Cell pellets were resuspended in 5 mM Tris-HCl, pH 7.5 with […] and a cocktail of protease inhibitors (Complete Protease Inhibition Tablets, Roche Diagnostics). Cells were disrupted using a polytron cell homogenizer and the suspension was centrifuged at 1000×g for 10 minutes at 4° C. The pellet was discarded and the supernatant centrifuged at 40,000×g for 30 min at 4° C. This membrane pellet was washed in membrane buffer containing 50 mM Tris-HCl, pH 7.5 with 0.6 mM EDTA, 5 mM MgCl2 and protease inhibitors, recentrifuged as above and the final pellet resuspended in membrane buffer plus 250 mM sucrose and frozen at −80° C.
(§2) Membranes were resuspended in 50 mM Tris HCl (pH 7.4), 5 mM MgCl2, 0.1% BSA. The membrane suspensions (10 μg protein per well) were incubated in a 96 well microtiter plate with [^3H]-N-alpha-methylhistamine (approximately 1 nM final concentration), test compounds at various concentrations (0.01 nM-30 μM) and scintillation proximity beads (Perkin Elmer, FlashBlueGPCR Scintillating Beads) in a final volume of 80 μl for 4 hours at room temperature, protected from light. Non-specific binding was determined in the presence of 10 μM clobenpropit. Radioligand bound to receptor, and therefore in proximity to the scintillation beads, was measured using a MicroBeta scintillation counter.

[1] = target: T2, rat histamine H3 receptor (Rattus norvegicus, UniProt Q9QYN8); assay: Rat H3 radioligand binding ([3H]-N-alpha-methylhistamine, CHO-A3 cell membranes, SPA)
T2 construct: encoding the entire 445-amino-acid rat histamine H3 receptor; expressed in transfected cells
Procedure: as §1, with “This was engineered into the pIRES-neo3 mammalian expression vector, which was stably transfected into the CHO-A3 cell line (Euroscreen, Belgium), followed by clonal selection by limiting dilution. Cells were harvested and cell pellets were frozen (−80° C.). Cell pellets” for “Cell pellets”
as §2

[2] = Table B, binding constant as letter class, read-out: rat H3 Ki

T2 sequence (Q9QYN8 whole entry): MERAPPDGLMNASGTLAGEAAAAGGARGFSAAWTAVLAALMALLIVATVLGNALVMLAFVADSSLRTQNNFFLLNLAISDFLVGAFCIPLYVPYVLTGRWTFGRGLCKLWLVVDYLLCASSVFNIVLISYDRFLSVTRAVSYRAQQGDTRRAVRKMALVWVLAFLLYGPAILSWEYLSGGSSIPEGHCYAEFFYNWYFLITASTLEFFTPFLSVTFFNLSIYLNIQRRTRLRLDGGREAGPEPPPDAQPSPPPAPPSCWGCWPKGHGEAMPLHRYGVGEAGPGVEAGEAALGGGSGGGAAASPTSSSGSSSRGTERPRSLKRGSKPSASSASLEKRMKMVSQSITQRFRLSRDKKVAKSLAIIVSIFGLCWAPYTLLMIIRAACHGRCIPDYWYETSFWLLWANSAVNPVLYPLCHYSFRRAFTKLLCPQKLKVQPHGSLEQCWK
T1 sequence (Q9Y5N1 whole entry): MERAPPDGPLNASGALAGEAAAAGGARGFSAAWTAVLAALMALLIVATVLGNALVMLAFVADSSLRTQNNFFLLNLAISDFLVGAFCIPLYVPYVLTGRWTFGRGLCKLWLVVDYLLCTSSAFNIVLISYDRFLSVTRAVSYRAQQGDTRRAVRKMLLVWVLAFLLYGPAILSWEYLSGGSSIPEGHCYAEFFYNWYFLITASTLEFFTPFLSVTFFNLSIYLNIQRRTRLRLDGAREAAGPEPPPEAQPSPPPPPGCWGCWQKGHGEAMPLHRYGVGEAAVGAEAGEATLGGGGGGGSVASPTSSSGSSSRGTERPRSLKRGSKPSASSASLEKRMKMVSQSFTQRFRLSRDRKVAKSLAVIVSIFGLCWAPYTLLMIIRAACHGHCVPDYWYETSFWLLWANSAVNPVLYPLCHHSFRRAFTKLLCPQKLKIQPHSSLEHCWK

Ki (human H3 receptor; Table B) | Ki [1, 2] | Compound | other results
0.1 to 100 nM | 0.1 to 100 nM | CC1CC(=O)NN=C1c1ccc(OCCCN2CCC[C@H]2C)cc1 (mixture of isomers) [Example 194, 5-Methyl-6-{4-[3-((R)-2-methyl-pyrrolidin-1-yl)-propoxy]-phenyl}-4,5-dihydro-2H-pyridazin-3-one] | –
0.1 to 100 nM | 0.1 to 100 nM | CC1CC(=O)NN=C1c1ccc(OCCCN2CCCCC2)cc1 (racemic) [Example 197, 5-Methyl-6-[4-(3-piperidin-1-yl-propoxy)-phenyl]-4,5-dihydro-2H-pyridazin-3-one] | –
0.1 to 100 nM | 0.1 to 100 nM | CC1CC(=O)NN=C1c1ccc(OCCCN2CCCC2)cc1 (racemic) [Example 198, 5-Methyl-6-[4-(3-pyrrolidin-1-yl-propoxy)-phenyl]-4,5-dihydro-2H-pyridazin-3-one] | –
0.1 to 100 nM | 0.1 to 100 nM | C[C@@H]1CCCN1CCCOc1ccc(C2=NNC(=O)C3CC23)cc1 (mixture of isomers) [Example 243, 5-{4-[3-((R)-2-Methyl-pyrrolidin-1-yl)-propoxy]-phenyl}-3,4-diaza-bicyclo[4.1.0]hept-4-en-2-one] | –
0.1 to 100 nM | 0.1 to 100 nM | CC1CC(=O)NN=C1c1ccc(OCCCN2CCC[C@H]2C)cc1 (single isomer, unassigned) [Example 195] | –
0.1 to 100 nM | 0.1 to 100 nM | CC1CC(=O)NN=C1c1ccc(OCCCN2CCC[C@H]2C)cc1 (single isomer, unassigned) [Example 196] | –
0.1 to 100 nM | 0.1 to 100 nM | C[C@@H]1CCCN1CCCOc1ccc(C2=NNC(=O)C3CC23)cc1 (single isomer, unassigned) [Example 246] | –
– | 0.1 to 100 nM | C[C@@H]1CCCN1CCCOc1ccc(C2=NNC(=O)C3CC23)cc1 (single isomer, unassigned) [Example 247] | –
0.1 to 100 nM | 0.1 to 100 nM | O=C1NN=C(c2ccc(OC3CCN(C4CCC4)CC3)cc2)C2CC12 (single isomer, unassigned) [Example 248, 5-[4-(1-Cyclobutyl-piperidin-4-yloxy)-phenyl]-3,4-diaza-bicyclo[4.1.0]hept-4-en-2-one] | –
0.1 to 100 nM | 0.1 to 100 nM | O=C1NN=C(c2ccc(OC3CCN(C4CCC4)CC3)cc2)C2CC12 (single isomer, unassigned) [Example 249, 5-[4-(1-Cyclobutyl-piperidin-4-yloxy)-phenyl]-3,4-diaza-bicyclo[4.1.0]hept-4-en-2-one] | –
– | – | C[C@@H]1CCCN1CCCOc1ccc(-c2ccc(=O)n(C)n2)cc1 [Example 1, 2-Methyl-6-{4-[3-((R)-2-methyl-pyrrolidin-1-yl)-propoxy]-phenyl}-2H-pyridazin-3-one] | Ki (human H3 receptor; Table A): 0.1 to 100 nM; Ki ([1]; Table A, binding constant as letter class, read-out: Rat H3 Ki): 0.1 to 100 nM
– | – | Cn1nc(-c2ccc(OCCCN3CCC[C@H]3CO)cc2)ccc1=O [Example 14, 6-{4-[3-((S)-2-Hydroxymethyl-pyrrolidin-1-yl)-propoxy]-phenyl}-2-methyl-2H-pyridazin-3-one] | Ki [1]: 0.1 to 100 nM
– | – | Cn1nc(-c2ccc(OCCCN3CCC[C@@H]3CO)cc2)ccc1=O [Example 15, 6-{4-[3-((R)-2-Hydroxymethyl-pyrrolidin-1-yl)-propoxy]-phenyl}-2-methyl-2H-pyridazin-3-one] | Ki [1]: 501 to 1000 nM
0.1 to 100 nM | – | C[C@@H]1CCCN1CCCOc1ccc(-c2n[nH]c(=O)cc2-c2ccccn2)cc1 [Example 112, 6-{4-[3-((R)-2-Methyl-pyrrolidin-1-yl)-propoxy]-phenyl}-5-pyridin-2-yl-2H-pyridazin-3-one] | –
– | – | C[C@@H]1CC(=O)NN=C1c1ccc(OC2CCN(C3CCC3)CC2)cc1 [Example 190, (R)-6-[4-(1-Cyclobutyl-piperidin-4-yloxy)-phenyl]-5-methyl-4,5-dihydro-2H-pyridazin-3-one] | Ki [1]: 0.1 to 100 nM
– | – | C[C@H]1CC(=O)NN=C1c1ccc(OC2CCN(C3CCC3)CC2)cc1 [Example 191, (S)-6-[4-(1-Cyclobutyl-piperidin-4-yloxy)-phenyl]-5-methyl-4,5-dihydro-2H-pyridazin-3-one] | Ki [1]: 0.1 to 100 nM
